Counter-ions that a name gives are not always drawn.
Columns and labels:
BRD4(BD1) = BRD4(BD1) (Homo sapiens (Human), UniProt O60885); assay: In vitro enzyme inhibition assay (BRD4 AlphaScreen); format: binding
Outline: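 AlphaScreen proximity readout, using streptavidin donor and Ni-chelate acceptor beads at 5 μg/mL final, monitors biotin-H4 tetraacetylated peptide interaction with purified His-tagged BRD4.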

[1] = test system: Raji, human Burkitts lymphoma cells; assay: Cell-MTS proliferation assay, Raji; format: cell-based; settings: Homo sapiens, Cell-MTS proliferation, 168 hr
Description: The Cell-MTS assay is a 7-day plate-based colorimetric assay which quantifies the amount of newly generated NADH in the presence or absence of test compound. The NADH level is used for the quantification of cancer cell proliferation.
Established cancer cell lines with a variety of driving mutations were obtained from American Type Culture Collection (ATCC) and routinely passaged according to ATCC protocols. For routine assay, these cells were seeded at densities which enabled ˜90% confluence after 7 days of culture. Raji, human Burkitts lymphoma cells, (cMYC) were seeded at 15,000 cells per 96-well. HL-60, human proleukemia cells, (NRAS, p16, p53, c-Myc amplified) were seeded at 5,000 cells per 96-well. NCI-H460, human non-small cell lung cancer cells, (KRAS, PIK3CA, STLK11, p16) were seeded at 3,000 cells per 96-well. 24 hr after plating, cells received an 11-point dilution of test compound with final concentration ranges from 100 μM to 2.0 nM. […] At the end of this incubation period, 80 μL of media is removed and 20 μL of CellTiter 96® AQueous Non-Radioactive Cell Proliferation Assay soln (Promega) was added. The cells were incubated until the OD490 was >0.6. IC50 values were calculated using the IDBS XLfit software package and include background subtracted OD490 values and normalization to DMSO controls. Cellular proliferation IC50 values were uploaded and archived using the Chem Biography Platform.

[2] = in vitro enzyme inhibition assay

IC50 (BRD4(BD1); [2]) [µM]	SMILES	further results
< 0.5	Cn1cc(-c2nc(CS(C)(=O)=O)ncc2Oc2ccc(F)cc2F)c2ccccc2c1=O [Example 148, 4-[5-(2,4-difluorophenoxy)-2-(methylsulfonylmethyl)pyrimidin-4-yl]-2-methylisoquinolin-1-one]	IC50 ([1]; Raji): > 5 µM
< 0.5	CCS(=O)(=O)c1ccc(O[C@H]2CC[C@H](O)CC2)c(-c2cn(C)c(=O)c3cc(F)ccc23)c1 [Example 189, 4-[5-ethylsulfonyl-2-(trans-4-hydroxycyclohexyl)oxyphenyl]-7-fluoro-2-methylisoquinolin-1-one]	IC50 ([1]; Raji): < 0.5 µM
< 0.5	CCS(=O)(=O)Nc1ncc(Oc2ccc(F)cc2F)c(-c2cc(C)c(=O)n(C(C)C)c2)n1 [Example 509, N-[5-(2,4-difluorophenoxy)-4-(5-methyl-6-oxo-1-propan-2-ylpyridin-3-yl)pyrimidin-2-yl]ethanesulfonamide]	IC50 ([1]; Raji cells): < 0.5 µM
< 0.5	CCCCc1cnc(NS(=O)(=O)CC)nc1-c1cc(C(C)C)c(=O)n(C)c1 [Example 512, N-[5-butyl-4-(1-methyl-6-oxo-5-propan-2-ylpyridin-3-yl)pyrimidin-2-yl] ethanesulfonamide]	IC50 ([1]; Raji cells): < 0.5 µM
< 0.5	[2H]C([2H])([2H])n1cc(-c2cc(S(=O)(=O)CC)ccc2OCC2CC2)c(C)cc1=O [Example 457, 5-[2-(cyclopropylmethoxy)-5-ethylsulfonylphenyl]-1-(^2H3)methyl-4-methylpyridin-2-one]	IC50 ([1]; Raji cells): < 0.5 µM
–	CCS(=O)(=O)Nc1cccc(-c2cn(C)c(=O)c3ccc(-c4ccccc4)cc23)c1 [Example 73, N-[3-(2-methyl-1-oxo-6-phenylisoquinolin-4-yl)phenyl]ethanesulfonamide]	IC50 (BRD4(BD1); class symbols A/B/C): 0.5 to 5 µM
0.5 to 5	CCS(=O)(=O)c1ccc(NCC2CC2)c(-c2cn(C)c(=O)cc2C)c1 [Example 423, 5-[2-(cyclopropylmethylamino)-5-ethylsulfonylphenyl]-1,4-dimethylpyridin-2-one]	–
< 0.5	CCS(=O)(=O)c1ccc(OCC2CC2)c(-c2cc(NC)c(=O)n(C)c2)c1 [Example 409, 5-[2-(cyclopropylmethoxy)-5-ethylsulfonylphenyl]-1-methyl-3-(methylamino)pyridin-2-one]	–
< 0.5	CCC1CCc2cc(NS(C)(=O)=O)cc(-c3cn(C)c(=O)c4ccccc34)c2O1 (centres unmarked) [Example 490, N-[2-ethyl-8-(2-methyl-1-oxoisoquinolin-4-yl)-3,4-dihydro-2H-chromen-6-yl] methanesulfonamide]	–
< 0.5	CCS(=O)(=O)c1ccc(OCC2CC2)c(-c2cn(C)c(=O)c3cncnc23)c1 [Example 232, 8-[2-(cyclopropylmethoxy)-5-ethylsulfonylphenyl]-6-methylpyrido[4,3-d]pyrimidin-5-one]	–
< 0.5	CCCCc1cnc(NS(=O)(=O)CC)nc1-c1cc(Cl)c(=O)n(C)c1 [Example 360, N-[5-butyl-4-(5-chloro-1-methyl-6-oxopyridin-3-yl)pyrimidin-2-yl]ethanesulfonamide]	–
> 5	CCS(=O)(=O)Nc1cc(-c2ccc(=O)n(C)c2)c(-c2ccccc2)s1 [Example 424, N-[4-(1-methyl-6-oxopyridin-3-yl)-5-phenylthiophen-2-yl]ethanesulfonamide]	–
< 0.5	CCS(=O)(=O)Nc1cc(OCc2ccccc2)cc(-c2cc(C)c(=O)n(C)c2)c1 [Example 395, N-[3-(1,5-dimethyl-6-oxopyridin-3-yl)-5-phenylmethoxyphenyl]ethanesulfonamide]	–
–	Cn1cc(-c2ccccc2F)c2ccccc2c1=O [Example 3, 4-(2-fluorophenyl)-2-methylisoquinolin-1-one]	IC50 (BRD4(BD1); class symbols A/B/C): > 5 µM
< 0.5	CCS(=O)(=O)c1ccc(OCC2CC2)c(-c2cc(OCC(F)(F)F)c(=O)n(C)c2)c1 [Example 288, 5-[2-(cyclopropylmethoxy)-5-ethylsulfonylphenyl]-1-methyl-3-(2,2,2-trifluoroethoxy)pyridin-2-one]	IC50 ([1]; Raji): 0.5 to 5 µM
–	Cn1cc(-c2cccc(S(C)(=O)=O)c2)n2cncc2c1=O [Example 131, 7-methyl-5-(3-methylsulfonylphenyl)imidazo[1,5-a]pyrazin-8-one]	IC50 (BRD4(BD1); class symbols A/B/C): > 5 µM
–	Cn1cc(-c2cc(N)cc(F)c2)c2ccccc2c1=O [Example 25, 4-(3-amino-5-fluorophenyl)-2-methylisoquinolin-1-one hydrochloride]	IC50 (BRD4(BD1); class symbols A/B/C): 0.5 to 5 µM

IC50 (BRD4(BD1); [2]) [µM]	SMILES	further results
< 0.5	CCc1ccc(S(C)(=O)=O)cc1-c1cn(C)c(=O)c2ccccc12 [Example 316, 4-(2-ethyl-5-methylsulfonylphenyl)-2-methylisoquinolin-1-one]	–
< 0.5	CCS(=O)(=O)c1ccc(O[C@H]2CC[C@H](O)CC2)c(-c2cn(C)c(=O)c3ccc(F)cc23)c1 [Example 188, 4-[5-ethylsulfonyl-2-(trans-4-hydroxycyclohexyl)oxyphenyl]-6-fluoro-2-methylisoquinolin-1-one]	IC50 ([1]; Raji): < 0.5 µM
< 0.5	CCS(=O)(=O)c1ccc(NCC2CC2)c(-c2cn(C)c(=O)c3cncn23)c1 [Example 375, 5-[2-(cyclopropylmethylamino)-5-ethylsulfonylphenyl]-7-methylimidazo[1,5-a]pyrazin-8-one]	–
> 5	CC(=O)Nc1nc(-c2cccc(NS(C)(=O)=O)c2)cn(C)c1=O [Example 478, N-[6-[3-(methanesulfonamido)phenyl]-4-methyl-3-oxopyrazin-2-yl]acetamide]	–
< 0.5	Cn1cc(-c2cc(S(C)(=O)=O)ccc2OCC2CC2)c2c(c1=O)CCC2 [Example 504, 4-[2-(cyclopropylmethoxy)-5-methylsulfonylphenyl]-2-methyl-6,7-dihydro-5H-cyclopenta[c]pyridin-1-one]	IC50 ([1]; Raji cells): < 0.5 µM
> 5	CCc1ccccc1-c1sc(NS(=O)(=O)CC)cc1-c1ccc(=O)n(C)c1 [Example 435, N-[5-(2-ethylphenyl)-4-(1-methyl-6-oxopyridin-3-yl)thiophen-2-yl] ethanesulfonamide]	–
–	COc1cccc(-c2cn(C)c(=O)c3ccccc23)c1 [Example 1, 4-(3-methoxyphenyl)-2-methylisoquinolin-1-one]	IC50 (BRD4(BD1); class symbols A/B/C): 0.5 to 5 µM
–	CNc1cccc(-c2cn(C)c(=O)c3ccccc23)c1 [Example 32, 2-methyl-4-[3-(methylamino)phenyl]isoquinolin-1-one Hydrochloride]	IC50 (BRD4(BD1); class symbols A/B/C): 0.5 to 5 µM
< 0.5	Cc1cc(-c2cc(OCc3ccc(F)cc3F)cc(S(C)(=O)=O)c2)cn(C)c1=O [Example 335, 5-[3-[(2,4-difluorophenyl)methoxy]-5-methylsulfonylphenyl]-1,3-dimethylpyridin-2-one]	–
–	Cn1cc(-c2cccc(S(=O)(=O)NC3CC3)c2)c2ccccc2c1=O [Example 6, N-cyclopropyl-3-(2-methyl-1-oxoisoquinolin-4-yl) benzenesulfonamide]	IC50 (BRD4(BD1); class symbols A/B/C): 0.5 to 5 µM
> 5	CCS(=O)(=O)Nc1cc(-c2ccc(=O)n(C)c2)c(-c2ccccc2C)s1 [Example 432, N-[4-(1-methyl-6-oxopyridin-3-yl)-5-(2-methylphenyl)thiophen-2-yl]ethanesulfonamide]	–
< 0.5	COc1ccc(COc2cc(-c3cc(C)c(=O)n(C)c3)cc(S(C)(=O)=O)c2)cc1 [Example 323, 5-[3-[(4-methoxyphenyl)methoxy]-5-methylsulfonylphenyl]-1,3-dimethylpyridin-2-one]	–
0.5 to 5	Cc1cc(-c2nc(S(C)(=O)=O)ncc2Oc2ccc(F)cc2F)cn(C(C)C)c1=O [Example 510, 5-[5-(2,4-difluorophenoxy)-2-methylsulfonylpyrimidin-4-yl]-3-methyl-1-propan-2-ylpyridin-2-one]	–
< 0.5	CCCc1cnc(NS(=O)(=O)CC)nc1-c1cn(C)c(=O)c2ccccc12 [Example 306, N-[4-(2-methyl-1-oxoisoquinolin-4-yl)-5-propylpyrimidin-2-yl] ethanesulfonamide]	–
–	CCNc1cc(-c2ccc(OC)c(NS(C)(=O)=O)c2)cn(C)c1=O [Example 111, N-[5-[5-(ethylamino)-1-methyl-6-oxopyridin-3-yl]-2-methoxyphenyl]methanesulfonamide]	IC50 (BRD4(BD1); class symbols A/B/C): 0.5 to 5 µM
< 0.5	Cn1cc(-c2nc(N3CCCS3(=O)=O)ncc2Oc2ccc(F)cc2F)c2ccccc2c1=O [Example 171, 4-[5-(2,4-difluorophenoxy)-2-(1,1-dioxo-1,2-thiazolidin-2-yl)pyrimidin-4-yl]-2-methylisoquinolin-1-one]	–

SMILES	IC50 (BRD4(BD1); [2]) [µM]	further results
CCOc1ccc(S(=O)(=O)CC)cc1-c1cn(C)c(=O)cc1C [Example 458, 5-(2-ethoxy-5-ethylsulfonylphenyl)-1,4-dimethylpyridin-2-one]	< 0.5	–
Cc1cc(-c2cc(S(C)(=O)=O)ccc2OCC2CC2)cn(Cc2ccccc2)c1=O [Example 485, 1-benzyl-5-[2-(cyclopropylmethoxy)-5-methylsulfonylphenyl]-3-methylpyridin-2-one]	0.5 to 5	–
Cn1cc(-c2cc(NS(C)(=O)=O)ccc2Oc2ccc(F)cc2F)cc(N2CCCC2)c1=O [Example 281, N-[4-(2,4-difluorophenoxy)-3-(1-methyl-6-oxo-5-pyrrolidin-1-ylpyridin-3-yl)phenyl]methanesulfonamide]	0.5 to 5	–
